{"source": "the NIST ThermoML archive (doi:10.1021/acs.jced.5b01111)", "test": "wn = mass fraction of the nth substance listed", "conditions": "288.15 K, 100 kPa, Liquid, Pycnometric method", "note": "Numbers after ± are expanded uncertainties."}
{"compound": "O=P([O-])(O)O.[K+]", "note": "[monopotassium phosphate] + O", "values": [{"measurement": "mass density", "setting": "w1 = 0.1653", "result": "1122.9 ± 2.6", "unit": "kg/m3"}]}
{"compound": "[Cl-].[K+]", "note": "[potassium chloride] + O", "values": [{"measurement": "mass density", "setting": "w1 = 0.2472", "result": "1168.2 ± 2.9", "unit": "kg/m3"}]}
{"compound": "O=S(=O)([O-])[O-].[K+].[K+]", "note": "[potassium sulfate] + O", "values": [{"measurement": "mass density", "setting": "w1 = 0.0912", "result": "1075.6 ± 2.4", "unit": "kg/m3"}]}
